ChEMBL document CHEMBL3991601, “The target landscape of clinical kinase drugs” (Science, 2017)
pKd: −log10 of the molar value. The source made the active and inactive calls.

What was measured:
[1] = target: Fibroblast growth factor receptor 1 (Homo sapiens, UniProt P11362)
[2] = target: 5'-AMP-activated protein kinase catalytic subunit alpha-1 (Homo sapiens, UniProt Q13131)
[3] = target: Tyrosine-protein kinase ABL2 (Homo sapiens, UniProt P42684)
[4] = target: T1, Serine/threonine-protein kinase A-Raf (Homo sapiens, UniProt P10398)
T1 sequence (P10398 whole entry): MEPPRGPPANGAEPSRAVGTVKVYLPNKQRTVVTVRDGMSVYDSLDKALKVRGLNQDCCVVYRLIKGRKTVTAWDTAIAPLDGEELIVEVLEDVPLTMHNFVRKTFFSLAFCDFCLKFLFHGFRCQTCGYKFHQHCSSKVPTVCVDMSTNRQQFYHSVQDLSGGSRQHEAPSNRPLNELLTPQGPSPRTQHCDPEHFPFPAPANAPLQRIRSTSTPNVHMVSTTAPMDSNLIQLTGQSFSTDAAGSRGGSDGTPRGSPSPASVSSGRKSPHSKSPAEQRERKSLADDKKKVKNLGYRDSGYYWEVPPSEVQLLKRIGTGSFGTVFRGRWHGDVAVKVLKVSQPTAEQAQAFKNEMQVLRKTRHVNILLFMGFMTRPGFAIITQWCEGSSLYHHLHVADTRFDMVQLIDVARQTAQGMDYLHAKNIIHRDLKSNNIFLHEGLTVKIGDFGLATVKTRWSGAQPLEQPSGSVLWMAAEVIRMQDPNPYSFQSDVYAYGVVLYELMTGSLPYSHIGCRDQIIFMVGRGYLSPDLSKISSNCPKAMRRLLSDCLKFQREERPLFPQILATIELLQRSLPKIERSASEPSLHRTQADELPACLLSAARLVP

[5] = target: DNA topoisomerase 2-alpha (Homo sapiens, UniProt P11388)
[6] = target: Serine/threonine-protein kinase/endoribonuclease IRE2 (Homo sapiens, UniProt Q76MJ5)
[7] = target: T2, Structural maintenance of chromosomes protein 1A (Homo sapiens, UniProt Q14683)
T2 sequence (Q14683 whole entry): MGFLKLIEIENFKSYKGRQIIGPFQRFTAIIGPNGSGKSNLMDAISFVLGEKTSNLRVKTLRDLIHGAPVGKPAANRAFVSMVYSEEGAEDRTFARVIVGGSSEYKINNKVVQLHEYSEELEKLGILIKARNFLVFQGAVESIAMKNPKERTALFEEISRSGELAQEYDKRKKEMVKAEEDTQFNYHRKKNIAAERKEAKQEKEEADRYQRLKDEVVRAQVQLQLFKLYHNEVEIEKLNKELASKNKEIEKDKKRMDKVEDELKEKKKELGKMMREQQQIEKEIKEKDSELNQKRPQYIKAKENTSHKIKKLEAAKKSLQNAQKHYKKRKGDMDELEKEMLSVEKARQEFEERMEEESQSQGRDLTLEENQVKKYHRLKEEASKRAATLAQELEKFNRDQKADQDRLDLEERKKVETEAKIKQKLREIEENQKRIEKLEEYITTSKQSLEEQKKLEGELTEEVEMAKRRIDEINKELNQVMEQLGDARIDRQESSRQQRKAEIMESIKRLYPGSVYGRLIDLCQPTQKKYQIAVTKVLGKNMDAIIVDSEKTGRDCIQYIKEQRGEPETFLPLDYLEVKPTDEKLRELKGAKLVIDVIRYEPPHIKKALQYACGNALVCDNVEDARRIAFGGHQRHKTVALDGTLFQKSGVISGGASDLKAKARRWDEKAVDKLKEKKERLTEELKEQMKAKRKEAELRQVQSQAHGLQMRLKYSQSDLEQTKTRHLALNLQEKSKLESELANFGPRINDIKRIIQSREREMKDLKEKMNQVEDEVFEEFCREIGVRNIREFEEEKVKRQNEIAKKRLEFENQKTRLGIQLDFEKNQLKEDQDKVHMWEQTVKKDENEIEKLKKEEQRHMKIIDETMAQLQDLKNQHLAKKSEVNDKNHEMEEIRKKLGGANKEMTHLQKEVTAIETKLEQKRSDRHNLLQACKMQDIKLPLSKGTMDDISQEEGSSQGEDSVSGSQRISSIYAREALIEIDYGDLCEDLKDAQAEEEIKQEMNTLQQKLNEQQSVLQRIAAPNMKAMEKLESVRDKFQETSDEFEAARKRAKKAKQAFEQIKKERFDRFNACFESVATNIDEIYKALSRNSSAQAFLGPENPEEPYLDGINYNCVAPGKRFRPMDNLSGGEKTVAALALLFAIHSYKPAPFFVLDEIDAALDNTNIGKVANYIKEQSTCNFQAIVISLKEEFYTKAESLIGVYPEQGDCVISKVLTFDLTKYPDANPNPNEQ

[8] = target: T3, Beta-adrenergic receptor kinase 1 (Homo sapiens, UniProt P25098)
T3 sequence (P25098 whole entry): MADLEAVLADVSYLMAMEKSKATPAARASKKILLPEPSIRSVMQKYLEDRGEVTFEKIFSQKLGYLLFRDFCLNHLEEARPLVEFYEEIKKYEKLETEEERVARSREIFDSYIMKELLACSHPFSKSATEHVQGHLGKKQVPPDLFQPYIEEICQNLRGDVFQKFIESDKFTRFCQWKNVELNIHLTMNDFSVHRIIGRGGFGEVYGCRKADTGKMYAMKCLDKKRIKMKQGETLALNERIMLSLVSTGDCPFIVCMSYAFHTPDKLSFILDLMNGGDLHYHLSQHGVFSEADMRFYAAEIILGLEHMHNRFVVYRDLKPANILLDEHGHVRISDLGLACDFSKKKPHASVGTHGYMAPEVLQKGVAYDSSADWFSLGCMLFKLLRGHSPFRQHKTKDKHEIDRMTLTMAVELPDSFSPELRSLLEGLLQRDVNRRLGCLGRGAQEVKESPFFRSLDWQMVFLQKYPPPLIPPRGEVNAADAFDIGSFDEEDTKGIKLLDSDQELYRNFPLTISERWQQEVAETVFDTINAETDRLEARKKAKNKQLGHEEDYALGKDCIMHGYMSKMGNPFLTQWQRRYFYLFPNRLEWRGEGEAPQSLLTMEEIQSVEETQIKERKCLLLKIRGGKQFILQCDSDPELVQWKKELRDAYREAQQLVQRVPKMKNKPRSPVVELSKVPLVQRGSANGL

[9] = target: Ribosomal protein S6 kinase alpha-3 (Homo sapiens, UniProt P51812)
Also: in the data inactive means no Kd found up to 30 µM.

Sequence of Ribosomal protein S6 kinase alpha-3 (P51812 whole entry): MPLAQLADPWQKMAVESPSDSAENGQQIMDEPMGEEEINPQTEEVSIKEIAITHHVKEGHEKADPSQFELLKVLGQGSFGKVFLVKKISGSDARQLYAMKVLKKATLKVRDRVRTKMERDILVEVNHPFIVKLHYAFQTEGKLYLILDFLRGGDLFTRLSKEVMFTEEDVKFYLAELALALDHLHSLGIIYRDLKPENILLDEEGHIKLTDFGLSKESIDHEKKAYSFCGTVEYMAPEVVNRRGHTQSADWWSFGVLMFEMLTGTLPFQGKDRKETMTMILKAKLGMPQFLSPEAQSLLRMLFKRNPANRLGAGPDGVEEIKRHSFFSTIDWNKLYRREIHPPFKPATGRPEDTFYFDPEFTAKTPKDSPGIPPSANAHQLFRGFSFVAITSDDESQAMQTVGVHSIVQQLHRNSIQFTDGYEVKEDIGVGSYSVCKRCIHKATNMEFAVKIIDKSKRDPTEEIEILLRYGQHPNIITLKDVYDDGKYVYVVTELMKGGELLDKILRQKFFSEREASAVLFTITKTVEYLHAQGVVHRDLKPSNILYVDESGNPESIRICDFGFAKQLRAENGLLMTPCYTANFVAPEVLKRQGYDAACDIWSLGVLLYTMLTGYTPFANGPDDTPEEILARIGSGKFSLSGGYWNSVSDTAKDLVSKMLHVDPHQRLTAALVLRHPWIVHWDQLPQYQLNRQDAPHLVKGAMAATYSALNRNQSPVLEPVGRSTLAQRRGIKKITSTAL
Sequence of Fibroblast growth factor receptor 1 (P11362 whole entry): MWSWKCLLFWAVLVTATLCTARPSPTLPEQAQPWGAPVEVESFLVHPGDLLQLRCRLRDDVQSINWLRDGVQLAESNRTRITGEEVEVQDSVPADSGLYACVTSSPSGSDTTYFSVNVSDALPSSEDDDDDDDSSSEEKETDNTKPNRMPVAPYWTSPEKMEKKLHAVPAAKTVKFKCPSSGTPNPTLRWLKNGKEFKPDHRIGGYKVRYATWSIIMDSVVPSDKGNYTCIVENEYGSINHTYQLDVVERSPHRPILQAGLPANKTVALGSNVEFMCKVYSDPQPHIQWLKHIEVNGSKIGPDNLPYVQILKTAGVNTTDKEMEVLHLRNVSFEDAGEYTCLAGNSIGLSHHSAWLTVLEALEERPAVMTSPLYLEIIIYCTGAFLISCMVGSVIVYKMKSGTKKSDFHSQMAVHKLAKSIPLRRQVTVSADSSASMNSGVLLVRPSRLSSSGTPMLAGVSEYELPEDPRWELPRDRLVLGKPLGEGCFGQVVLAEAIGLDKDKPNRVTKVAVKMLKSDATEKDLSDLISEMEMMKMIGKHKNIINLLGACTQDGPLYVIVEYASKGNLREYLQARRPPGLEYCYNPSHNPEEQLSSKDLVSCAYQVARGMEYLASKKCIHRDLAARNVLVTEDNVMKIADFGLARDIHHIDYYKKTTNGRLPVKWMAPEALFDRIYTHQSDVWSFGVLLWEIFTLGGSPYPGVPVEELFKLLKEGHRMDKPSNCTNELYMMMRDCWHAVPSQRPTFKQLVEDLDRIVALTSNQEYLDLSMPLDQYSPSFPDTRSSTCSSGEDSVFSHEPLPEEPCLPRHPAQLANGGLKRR
Sequence of Serine/threonine-protein kinase/endoribonuclease IRE2 (Q76MJ5 whole entry): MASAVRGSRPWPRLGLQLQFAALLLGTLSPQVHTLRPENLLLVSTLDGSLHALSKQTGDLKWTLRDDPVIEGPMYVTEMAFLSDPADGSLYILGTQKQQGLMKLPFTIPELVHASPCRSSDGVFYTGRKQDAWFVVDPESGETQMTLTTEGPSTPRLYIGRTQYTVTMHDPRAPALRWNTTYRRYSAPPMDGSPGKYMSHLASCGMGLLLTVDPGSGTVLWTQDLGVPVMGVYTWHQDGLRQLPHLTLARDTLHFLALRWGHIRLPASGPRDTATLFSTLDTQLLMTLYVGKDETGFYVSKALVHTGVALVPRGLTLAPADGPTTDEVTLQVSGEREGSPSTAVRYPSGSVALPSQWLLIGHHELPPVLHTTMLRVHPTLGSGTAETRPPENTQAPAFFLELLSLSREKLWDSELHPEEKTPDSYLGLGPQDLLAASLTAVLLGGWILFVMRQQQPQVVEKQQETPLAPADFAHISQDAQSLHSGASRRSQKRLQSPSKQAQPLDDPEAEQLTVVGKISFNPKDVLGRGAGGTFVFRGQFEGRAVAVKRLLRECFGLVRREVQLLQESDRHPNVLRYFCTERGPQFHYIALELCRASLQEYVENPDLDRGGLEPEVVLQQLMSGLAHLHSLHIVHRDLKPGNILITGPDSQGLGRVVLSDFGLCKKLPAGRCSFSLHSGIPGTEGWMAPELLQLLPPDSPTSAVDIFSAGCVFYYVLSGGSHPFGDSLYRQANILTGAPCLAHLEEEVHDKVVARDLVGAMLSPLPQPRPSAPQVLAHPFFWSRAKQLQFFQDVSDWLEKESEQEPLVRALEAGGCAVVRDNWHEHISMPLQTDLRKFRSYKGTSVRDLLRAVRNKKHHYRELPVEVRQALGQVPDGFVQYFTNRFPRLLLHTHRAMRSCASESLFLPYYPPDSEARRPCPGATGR
Sequence of Tyrosine-protein kinase ABL2 (P42684 whole entry): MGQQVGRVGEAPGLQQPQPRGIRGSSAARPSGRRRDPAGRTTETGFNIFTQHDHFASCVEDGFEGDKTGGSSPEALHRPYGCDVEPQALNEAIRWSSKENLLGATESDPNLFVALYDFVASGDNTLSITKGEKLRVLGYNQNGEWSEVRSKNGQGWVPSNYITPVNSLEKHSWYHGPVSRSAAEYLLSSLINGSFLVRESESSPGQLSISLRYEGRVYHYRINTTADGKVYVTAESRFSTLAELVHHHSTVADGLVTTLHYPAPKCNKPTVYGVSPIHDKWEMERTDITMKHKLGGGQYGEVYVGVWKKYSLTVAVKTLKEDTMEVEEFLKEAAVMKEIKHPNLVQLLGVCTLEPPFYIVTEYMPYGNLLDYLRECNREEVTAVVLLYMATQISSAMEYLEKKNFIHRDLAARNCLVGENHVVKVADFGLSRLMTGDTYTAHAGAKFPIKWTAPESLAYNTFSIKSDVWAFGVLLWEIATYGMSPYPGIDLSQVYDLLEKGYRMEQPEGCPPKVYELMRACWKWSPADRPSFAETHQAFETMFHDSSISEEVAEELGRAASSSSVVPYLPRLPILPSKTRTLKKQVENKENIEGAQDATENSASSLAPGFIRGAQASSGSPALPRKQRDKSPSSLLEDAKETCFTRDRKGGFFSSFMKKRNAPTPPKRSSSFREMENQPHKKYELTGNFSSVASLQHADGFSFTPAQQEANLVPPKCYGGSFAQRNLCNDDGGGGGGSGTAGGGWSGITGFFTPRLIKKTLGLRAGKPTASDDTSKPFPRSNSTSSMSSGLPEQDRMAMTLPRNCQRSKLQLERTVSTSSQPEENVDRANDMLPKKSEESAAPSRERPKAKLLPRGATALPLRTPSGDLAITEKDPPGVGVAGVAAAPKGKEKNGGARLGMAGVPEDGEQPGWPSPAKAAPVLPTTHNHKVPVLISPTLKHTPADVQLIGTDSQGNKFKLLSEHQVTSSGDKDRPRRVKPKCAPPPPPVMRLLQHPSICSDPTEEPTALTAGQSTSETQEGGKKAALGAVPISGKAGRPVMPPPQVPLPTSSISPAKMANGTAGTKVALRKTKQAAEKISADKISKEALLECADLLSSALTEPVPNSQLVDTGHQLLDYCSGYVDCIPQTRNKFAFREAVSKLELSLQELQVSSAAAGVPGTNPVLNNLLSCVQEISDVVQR
Sequence of 5'-AMP-activated protein kinase catalytic subunit alpha-1 (Q13131 whole entry): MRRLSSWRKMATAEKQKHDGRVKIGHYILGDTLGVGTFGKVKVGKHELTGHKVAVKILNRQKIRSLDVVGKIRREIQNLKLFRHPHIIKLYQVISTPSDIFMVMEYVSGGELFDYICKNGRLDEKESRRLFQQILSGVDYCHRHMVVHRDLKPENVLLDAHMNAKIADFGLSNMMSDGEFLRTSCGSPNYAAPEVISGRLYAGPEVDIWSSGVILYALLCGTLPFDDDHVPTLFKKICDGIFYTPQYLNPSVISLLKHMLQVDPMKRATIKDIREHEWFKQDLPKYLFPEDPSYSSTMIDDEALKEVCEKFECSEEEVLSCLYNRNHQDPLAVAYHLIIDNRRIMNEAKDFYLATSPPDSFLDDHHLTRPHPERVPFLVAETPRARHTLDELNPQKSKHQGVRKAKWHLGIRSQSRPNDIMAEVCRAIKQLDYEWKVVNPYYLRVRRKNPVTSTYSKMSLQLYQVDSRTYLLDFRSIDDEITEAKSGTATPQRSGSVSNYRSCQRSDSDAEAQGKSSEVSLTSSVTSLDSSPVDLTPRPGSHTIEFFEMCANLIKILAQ

| Structure (SMILES) | Kd [1] | Kd [2] | Kd [3] | Kd [4] | Kd [5] | Kd [6] | Kd [7] | Kd [8] | Kd [9] | pKd [6] |
| --- | --- | --- | --- | --- | --- | --- | --- | --- | --- | --- |
| CCS(=O)(=O)N1CC(CC#N)(n2cc(-c3ncnc4[nH]ccc34)cn2)C1 [BARICITINIB] | > 30 µM (inactive) | > 30 µM (inactive) | > 30 µM (inactive) | > 30 µM (inactive) | > 30 µM (inactive) | > 30 µM (inactive) | > 30 µM (inactive) | > 30 µM (inactive) | > 30 µM (inactive) |  |
| CNC(=O)c1ccc(-c2cnc3ncc(Cc4ccc5ncccc5c4)n3n2)cc1F [CAPMATINIB] | > 30 µM (inactive) | > 30 µM (inactive) | > 30 µM (inactive) | > 30 µM (inactive) | > 30 µM (inactive) | > 30 µM (inactive) | > 30 µM (inactive) | > 30 µM (inactive) | > 30 µM (inactive) |  |
| O=C(c1ccc(F)c(F)c1Nc1ccc(I)cc1F)N1CC(O)([C@@H]2CCCCN2)C1 [COBIMETINIB] | > 30 µM (inactive) | > 30 µM (inactive) | > 30 µM (inactive) | > 30 µM (inactive) | > 30 µM (inactive) | > 30 µM (inactive) | > 30 µM (inactive) | > 30 µM (inactive) | > 30 µM (inactive) |  |
| COC(=O)N[C@@H](C)CNc1nccc(-c2cn(C(C)C)nc2-c2cc(Cl)cc(NS(C)(=O)=O)c2F)n1 [ENCORAFENIB] | > 30 µM (inactive) | > 30 µM (inactive) | > 30 µM (inactive) | > 30 µM (inactive) | > 30 µM (inactive) | > 30 µM (inactive) | > 30 µM (inactive) | > 30 µM (inactive) | > 30 µM (inactive) |  |
| CO[C@H]1C[C@@H]2CC[C@@H](C)[C@@](O)(O2)C(=O)C(=O)N2CCCC[C@H]2C(=O)O[C@H]([C@H](C)C[C@@H]2CC[C@@H](OCCO)[C@H](OC)C2)CC(=O)[C@H](C)/C=C(\C)[C@@H](O)[C@@H](OC)C(=O)[C@H](C)C[C@H](C)/C=C/C=C/C=C/1C [EVEROLIMUS] | > 30 µM (inactive) | > 30 µM (inactive) | > 30 µM (inactive) | > 30 µM (inactive) | > 30 µM (inactive) | > 30 µM (inactive) | > 30 µM (inactive) | > 30 µM (inactive) | > 30 µM (inactive) |  |
| CC[C@H](Nc1ncnc2[nH]cnc12)c1nc2cccc(F)c2c(=O)n1-c1ccccc1 [IDELALISIB] | > 30 µM (inactive) | > 30 µM (inactive) | > 30 µM (inactive) | > 30 µM (inactive) | > 30 µM (inactive) | > 30 µM (inactive) | > 30 µM (inactive) | > 30 µM (inactive) | > 30 µM (inactive) |  |
| COC(=O)[C@@]1(O)C[C@H]2O[C@]1(C)n1c3ccccc3c3c4c(c5c6ccccc6n2c5c31)C(=O)NC4 [K-252A] | > 30 µM (inactive) | 0.461 µM (active) | > 30 µM (inactive) | > 30 µM (inactive) | > 30 µM (inactive) | 0.908 µM (active) | > 30 µM (inactive) | > 30 µM (inactive) | 2.99 µM (active) |  |
| COc1cc2nccc(Oc3ccc(NC(=O)NC4CC4)c(Cl)c3)c2cc1C(N)=O [LENVATINIB] | > 30 µM (inactive) | > 30 µM (inactive) | > 30 µM (inactive) | > 30 µM (inactive) | > 30 µM (inactive) | > 30 µM (inactive) | > 30 µM (inactive) | > 30 µM (inactive) | > 30 µM (inactive) |  |
| Cc1c(F)cc(C(=O)NC2CC2)cc1-c1ccc(C(=O)NCC(C)(C)C)cn1 [LOSMAPIMOD] | > 30 µM (inactive) | > 30 µM (inactive) | > 30 µM (inactive) | > 30 µM (inactive) | > 30 µM (inactive) | > 30 µM (inactive) | > 30 µM (inactive) | > 30 µM (inactive) | > 30 µM (inactive) |  |
| O=C(O)[C@]1(Cc2cccc(Nc3nccs3)n2)CC[C@@H](Oc2cccc(Cl)c2F)CC1 [MK-5108] | > 30 µM (inactive) | > 30 µM (inactive) | 0.077 µM (active) | > 30 µM (inactive) | > 30 µM (inactive) | > 30 µM (inactive) | > 30 µM (inactive) | > 30 µM (inactive) | > 30 µM (inactive) |  |

Now from value to compound:

| Kd [1] | Kd [2] | Kd [3] | Kd [4] | Kd [5] | Kd [6] | Kd [7] | Kd [8] | Kd [9] | pKd [6] | Structure (SMILES) |
| --- | --- | --- | --- | --- | --- | --- | --- | --- | --- | --- |
| > 30 µM (inactive) | > 30 µM (inactive) | > 30 µM (inactive) | > 30 µM (inactive) | > 30 µM (inactive) | > 30 µM (inactive) | > 30 µM (inactive) | > 30 µM (inactive) | > 30 µM (inactive) |  | Cc1cc([C@@H](C)Nc2ccccc2C(=O)O)c2nc(N3CCOCC3)cc(=O)n2c1 [AZD-6482] |
| > 30 µM (inactive) | > 30 µM (inactive) | > 30 µM (inactive) | > 30 µM (inactive) | > 30 µM (inactive) | > 30 µM (inactive) | > 30 µM (inactive) | > 30 µM (inactive) | > 30 µM (inactive) |  | COc1ccc(-c2ccc3c(N4CCOC[C@@H]4C)nc(N4CCOC[C@@H]4C)nc3n2)cc1CO [AZD-8055] |
| > 30 µM (inactive) | > 30 µM (inactive) | > 30 µM (inactive) | > 30 µM (inactive) | > 30 µM (inactive) |  | > 30 µM (inactive) | > 30 µM (inactive) | > 30 µM (inactive) | 5.82 | C[C@@H](Nc1cc(F)cc(F)c1)c1cc(C(=O)N(C)C)cc2c(=O)cc(N3CCOCC3)oc12 [AZD-8186] |
| > 30 µM (inactive) | > 30 µM (inactive) | > 30 µM (inactive) | > 30 µM (inactive) | > 30 µM (inactive) | > 30 µM (inactive) | > 30 µM (inactive) | > 30 µM (inactive) | > 30 µM (inactive) |  | O=C1NC(=O)/C(=C/c2ccc3nccc(-c4ccncc4)c3c2)S1 [GSK-1059615] |
| > 30 µM (inactive) | > 30 µM (inactive) | > 30 µM (inactive) | > 30 µM (inactive) | > 30 µM (inactive) | > 30 µM (inactive) | > 30 µM (inactive) | > 30 µM (inactive) | > 30 µM (inactive) |  | Cn1cc(-c2ccc3nnc(C(F)(F)c4ccc5ncccc5c4)n3n2)cn1 [JNJ-38877605] |
